Active and inactive are the calls of the source. No rule for the calls is given here.
The molecules below were run on VEEV TC-83 infected cells, virus titer reduction (assay: VEEV TC 83 virus titer reduction, infected cells, secondary screen, 5 µm (AID 651886)). Conditions: at 5 µM; stronger effect = lower value.

Row | SMILES | log virus titer change
1 | CN1CCN(C)C(=Nc2ccc([N+](=O)[O-])cc2C(=O)Nc2ccccc2F)C1 | -3.8
2 | O=c1c2cc([N+](=O)[O-])ccc2nc(CN2CCCCC2)n1-c1ccccc1F | -0.366 (inactive)
3 | CCN1CCN(Cc2nc3ccc([N+](=O)[O-])cc3c(=O)n2-c2ccccc2)CC1 | < -7.54
4 | O=c1c2cc([N+](=O)[O-])ccc2nc(CN2CCNCC2)n1-c1ccccc1 | < -7.76
5 | CCN1CCN(Cc2nc3ccc([N+](=O)[O-])cc3c(=O)n2-c2ccc(F)cc2)CC1 | -5.88
6 | CN1CCN(Cc2nc3ccc([N+](=O)[O-])cc3c(=O)n2-c2ccccc2F)CC1 | < -7.76
7 | CCN1CCN(Cc2nc3ccc(C#N)cc3c(=O)n2-c2ccccc2)CC1 | -1.65
8 | COc1ccc(NC(=O)c2cc([N+](=O)[O-])ccc2N=C2CN(C)CCN2C)cc1 | < -7.2
9 | CCN1CCN(Cc2nc3ccc(I)cc3c(=O)n2-c2ccccc2)CC1 | -0.33 (inactive)
10 | O=c1c2cc([N+](=O)[O-])ccc2nc(CN2CCNCC2)n1-c1ccccc1F | < -7.76
11 | CCN1CCN(Cc2nc3ccc([N+](=O)[O-])cc3c(=O)n2-c2cccc(F)c2)CC1 | -7.11
12 | CCN1CCN(C)CC1=Nc1ccc([N+](=O)[O-])cc1C(=O)Nc1ccccc1 | < -7.2
13 | CN1CCN(C)C(=Nc2ccc(C#N)cc2C(=O)Nc2ccccc2)C1 | -5.82
14 | CN1CCN(C)C(=Nc2ccc([N+](=O)[O-])cc2C(=O)Nc2ccccc2)C1 | < -7.2
15 | CN1CCN(C)C(=Nc2ccc(C#N)cc2C(=O)Nc2cccc(F)c2)C1 | -1.43
16 | CCN1CCN(Cc2nc3ccc([N+](=O)[O-])cc3c(=O)n2-c2ccccc2F)CC1 | -2.06

Reference: PubChem BioAssay AID651886 (Southern Research Specialized Biocontainment Screening …, 2012)
